# Data reported in paper PMC4113009, “Dihydroisoxazole inhibitors of Anopheles gambiae seminal transglutaminase AgTG3” (Malaria Journal, 2014).
# pIC50: −log10 of the molar value. Like-named read-outs stand apart in the source and are kept apart here.
# Key:
# AgTG3 [1] = target: T1, AgTG3 (Anopheles gambiae, UniProt D2K8K8); test: biochemical; settings: for Activity against AgTG3 in dose–response assay: up to 100 μM; for Inhibition of AgTG3 in primary screen: 100 μM, triplicate
# Experimental: Plugin-C (25 μg/well) was incubated in black 96-well Ni-coated plates (Pierce 15342) for 2 h at room temperature or overnight at 4°C. Plates were washed three times with 200 μL of TBS and loaded with 0.5 μg of AgTG3 in 50 μL TBS buffer. DHI inhibitors were added for 1 h to block the enzyme, followed by 50 μL of 2× assay buffer (2× TBS, 20 mM CaCl2, 100 μM FITC-CAD, 2 mM DTT). Wells were incubated for 60 min at room temperature, washed three times with 200 μL of TBS, and filled to a final volume of 100 μL for fluorescence measurements in a microplate reader (Biotek Synergy 2). The z-score was calculated based on the mean and standard deviation of three replicates of inhibitor compared to a DMSO control, zi=x¯DMSO-x¯i/σDMSO+σi .
# The targeted chemical library was screened for inhibition of AgTG3 at 100 μM in a FITC-CAD plate assay (Figure 3A), performed in triplicate as previously described. Hit-calling was based on >67% decrease in fluorescence compared to DMSO and z > 5. Seven compounds fulfilled these criteria in the primary assay.
# To verify the results of this preliminary assay, dose–response curves in the range of 0.5–100 μM were determined for 27 structurally related compounds within the targeted library (Additional file 3: Table S2 and Additional file 4: Table S3). […] Selected stereoisomers present in the targeted library were compared in equivalent dose–response assays. Inhibition of AgTG3 was specific for the (S)-DHI isomer of 1 (Figure 4A), the (R) isomer (4) displaying no activity (IC50 > 100 μM).
# AgTG3 [2] = target: T1, AgTG3; test: AgTG3 plugin cross-linking assay (SDS-PAGE, FITC-CAD); format: biochemical; settings: for Inhibition of plugin-C cross-linking by AgTG3 (controls): 10 mM EDTA, 50 mM IA, 5 mM CaCl2
# Experimental: Recombinant AgTG3 was pre-incubated with 100 μM inhibitors overnight at room temperature. AgTG3, with and without pretreatment with inhibitors (1 μg), was added to plugin-C (20 μg) and 0.5 mM FITC-cadaverine (FITC-CAD) in 25 mM HEPES, pH 7.5, 10 mM CaCl2, 1 mM DTT. The reaction was incubated at room temperature for 2 h and quenched by heat denaturation of the proteins in the presence of Laemmli buffer. The extent of cross-linking was analysed by sodium dodecyl sulphate-polyacrylamide gel electrophoresis (SDS-PAGE). The gel was scanned using Alpha Imager 2200 software.
# Additional assays were performed to examine whether compounds 1 and 3 would inhibit the cross-linking of plugin-C by AgTG3 in solution, with FITC-CAD for fluorescent detection of plugin-C. Results were assessed by SDS/PAGE and UV illumination to detect FITC-CAD (Figure 7). […] In the presence of enzyme, substrate and calcium a ladder of fluorescent bands of increasing molecular weight (MW) is observed (lane 4), corresponding to cross-linked oligomers of plugin also labeled by FITC-CAD. […] However, the levels of AgTG3 in solution assays are higher in the cross-linking assay than the primary screen. The levels of plugin-C were also higher, which competes with slow-binding irreversible inhibitors such as 1 and 3 for the active site of AgTG3.
# Figure 7 Inhibition of plugin cross-linking by DHI inhibitors. Fluorescent image of SDS-PAGE for FITC-cadaverine labeling and cross-linking of plugin by AgTG3. Lanes (1–4): (1) AgTG3, (2) Plugin-C, (3) AgTG3 and plugin-C, (4) AgTG3, plugin-C, and 5 mM CaCl2. Lanes (5–8): AgTG3, plugin-C, 5 mM CaCl2 and (5) 10 mM EDTA, (6) 50 mM IA, (7) 100 μM 1, (8) 100 μM 3. (below) Coomassie stain indicating relative levels of monomeric Plugin-C.
# [3] = parameters: method as in PMID 21275056; settings: 50 mg/kg, intraperitoneal injection; cited from earlier work
# [4] = tested on: model of human African trypanosomiasis; parameters: method as in PMID 21275056; settings: cited from earlier work
# Drosophila = tested on: Drosophila; parameters: method as in PMID 22996645; settings: delivered orally ad libitum, 10 μM in agar; cited from earlier work
# tumor model = tested on: tumor model; parameters: method as in PMID 22996645; settings: cited from earlier work
# human caspase-1 = target: T2, human caspase-1 (Homo sapiens, UniProt P29466); test: Cysteine protease inhibition assay, caspase-1 (Ac-YVAD-pNA); format: biochemical; settings: 3 at 100 μM, compared to a DMSO control, chromogenic assay
# T2 construct: purchased Abcam
# T2 sequence (P29466 120-297 limits assumed): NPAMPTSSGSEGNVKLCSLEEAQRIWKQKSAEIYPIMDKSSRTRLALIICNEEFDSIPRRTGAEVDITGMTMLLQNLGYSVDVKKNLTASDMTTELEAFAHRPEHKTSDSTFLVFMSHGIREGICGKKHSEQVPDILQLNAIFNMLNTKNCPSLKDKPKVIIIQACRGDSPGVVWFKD
# T2 sequence (P29466 317-404 limits assumed): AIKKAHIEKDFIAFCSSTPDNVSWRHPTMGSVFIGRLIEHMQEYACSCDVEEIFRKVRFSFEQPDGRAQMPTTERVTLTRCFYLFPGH
# Experimental: The activity of caspase-1 was determined by use of chromogenic substrate Ac-YVAD-pNA (Enzo Life Sciences, NY, USA). The assay was performed by adding 45 μL of 1 Unit caspase-1 (Abcam, MA, USA) and 5 μL of Ac-YVAD-pNA (final concentration, 5 μM) to 50 μL assay buffer (50 mM HEPES pH 7.4, 10 mM DTT, 1 mM EDTA, 0.1% CHAPS, 20% glycerol). Substrate cleavage after 1 h incubation at 37°C was measured by […] absorbance at 400 nm in a benchtop UV/Vis spectrophotometer (UV1800, Shimadzu, Kyoto, Japan).
# (§1) Transglutaminases and cysteine proteases have a similar catalytic mechanism involving an active site cysteine and formation of a thioacyl intermediate. […] To test this hypothesis, the inhibition of two cysteine proteases, human caspase-1 and recombinant tobacco etch virus (TEV) protease by 3 at 100 μM were tested using a chromogenic and SDS-PAGE assay, respectively (Figure 9). […] Neither human caspase-1 nor TEV are endogenous proteins in A. gambiae, which may well contain other endogenous targets of 1–3, not least the two other transglutaminases in the A. gambiae genome.
# [5] = target: T3, recombinant tobacco etch virus (TEV) protease (Tobacco etch virus, UniProt P04517); test: Cysteine protease inhibition assay, TEV protease (GST-gp78 cleavage, SDS-PAGE); format: biochemical; settings: 3 at 100 μM, compared to a DMSO control
# T3 construct: recombinant tobacco etch virus (TEV) protease
# T3 sequence (P04517 2038-2279): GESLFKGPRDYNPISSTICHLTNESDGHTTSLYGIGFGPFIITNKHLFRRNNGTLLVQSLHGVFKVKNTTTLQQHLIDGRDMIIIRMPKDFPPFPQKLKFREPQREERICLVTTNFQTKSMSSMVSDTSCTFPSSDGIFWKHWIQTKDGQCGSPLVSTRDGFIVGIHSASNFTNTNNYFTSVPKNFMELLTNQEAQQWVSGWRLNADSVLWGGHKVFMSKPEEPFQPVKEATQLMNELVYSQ
# Experimental: The activity of recombinant tobacco etch virus (TEV) protease was determined by cleavage of a fusion protein containing a TEV cleavage site between GST and a 17 kDa fragment of human gp78. TEV and GST-gp78 were incubated at 37°C for 10 min at a substrate:enzyme mass ratio of 10:1. The reaction was stopped by adding 3× loading buffer (150 mM Tris–HCl pH 6.8, 300 mM DTT, 6% (w/v) SDS, 0.06% (w/v) bromophenol blue, 30% (v/v) glycerol). Samples were heated at 95°C for 3 min and separated by 4–20% gradient SDS-PAGE.
# as §1
# hTG2 = settings: cited from earlier work
# [6] = dose–response curves in the range of 0.5–100 μM, FITC-CAD plate assay, read-out: IC50 for inhibition of AgTG3
# [7] = dose–response, 27 dihydroisoxazole inhibitors, read-out: IC50 (Supplementary Table 3, AgTG3)
# T1 sequence (D2K8K8 entry or part of it): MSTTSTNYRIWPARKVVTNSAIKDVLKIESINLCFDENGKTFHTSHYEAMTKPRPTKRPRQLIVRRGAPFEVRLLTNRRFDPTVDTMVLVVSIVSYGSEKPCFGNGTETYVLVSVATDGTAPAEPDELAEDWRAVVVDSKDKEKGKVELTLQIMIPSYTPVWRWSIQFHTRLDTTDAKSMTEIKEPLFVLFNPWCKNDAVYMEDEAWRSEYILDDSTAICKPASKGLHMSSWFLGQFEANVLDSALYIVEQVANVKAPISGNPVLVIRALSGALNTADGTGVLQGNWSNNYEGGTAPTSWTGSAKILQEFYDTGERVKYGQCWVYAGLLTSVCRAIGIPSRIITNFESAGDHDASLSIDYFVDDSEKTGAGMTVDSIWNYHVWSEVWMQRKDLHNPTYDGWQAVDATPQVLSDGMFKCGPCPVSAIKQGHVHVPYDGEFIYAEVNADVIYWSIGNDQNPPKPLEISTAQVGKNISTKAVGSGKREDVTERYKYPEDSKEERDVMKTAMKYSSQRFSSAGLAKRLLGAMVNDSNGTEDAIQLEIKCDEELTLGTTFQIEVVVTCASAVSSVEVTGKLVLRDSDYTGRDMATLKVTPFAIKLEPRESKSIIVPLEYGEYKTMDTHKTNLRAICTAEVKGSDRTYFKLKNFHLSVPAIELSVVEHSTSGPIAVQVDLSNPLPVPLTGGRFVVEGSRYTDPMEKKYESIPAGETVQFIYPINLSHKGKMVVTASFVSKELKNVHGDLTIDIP
smiles,measurement,setting,value
O=C(N[C@@H](Cc1c[nH]c2ccc(F)cc12)C(=O)NC[C@@H]1CC(Br)=NO1)OCc1cnc2ccccc2c1,pIC50,AgTG3 [1]; [6],5.51
same,Inhibition of plugin-C cross-linking by AgTG3,"AgTG3 [2]; 100 μM inhibitor, 5 mM CaCl2, intensity of high MW bands",inhibited the cross-linking of plugin
O=C(N[C@@H](Cc1c[nH]c2ccc(F)cc12)C(=O)NC[C@@H]1CC(Br)=NO1)OCc1cnc2ccccc2n1,pIC50,AgTG3 [1]; [6],5.01
O=C(N[C@@H](Cc1c[nH]c2ccc(F)cc12)C(=O)NC[C@@H]1CC(Br)=NO1)OCc1ccnc2ccccc12,pIC50,AgTG3 [1]; [6],4.91
same,pIC50,AgTG3 [1]; [7],4.92
CC(C)(C)OC(=O)N[C@@H](Cc1c[nH]c2ccc(F)cc12)C(=O)NC[C@@H]1CC(Br)=NO1,pIC50,AgTG3 [1]; [6],4.25
O=C(N[C@@H](Cc1c[nH]c2ccc(O)cc12)C(=O)NC[C@@H]1CC(Br)=NO1)OCc1cnc2ccccc2c1,pIC50,AgTG3 [1]; [6],5.37
O=C(N[C@@H](Cc1c[nH]c2ccc(F)cc12)C(=O)NC[C@H]1CC(Br)=NO1)OCc1cnc2ccccc2c1,pIC50,AgTG3 [1]; [6],< 4.00
O=C(N[C@@H](Cc1csc2ccccc12)C(=O)NC[C@@H]1CC(Br)=NO1)OCc1cnc2ccccc2c1,pIC50,AgTG3 [1]; [7],4.74
N[C@H](C(=O)O)[C@@H]1CC(Br)=NO1 [3-bromoacivicin],Acute toxicity in mice,[3],no acute toxicity
same,Activity in vivo in a model of human African trypanosomiasis,[4],active in vivo
"N[C@H](C(=O)O)[C@@H]1CC(Cl)=NO1 [Acivicin, acivicin]",Toxicity to Drosophila,Drosophila,non-toxic
same,Activity in vivo in a tumor model,tumor model,active in vivo
O=C(N[C@@H](Cc1ccccc1)C(=O)NC[C@@H]1CC(Br)=NO1)OCc1cnc2ccccc2c1 [Compound 5],pIC50,AgTG3 [1]; [6],4.54
O=C(N[C@H](Cc1ccccc1)C(=O)NC[C@@H]1CC(Br)=NO1)OCc1cnc2ccccc2c1 [Compound 6],pIC50,AgTG3 [1]; [7],< 4.00
same,Activity against AgTG3 in dose–response assay,AgTG3 [1],inactive
O=C(N[C@@H](Cc1ccccc1F)C(=O)NC[C@@H]1CC(Br)=NO1)OCc1cnc2ccccc2c1 [Compound 8],pIC50,AgTG3 [1]; [6],~4.52
same,pIC50,AgTG3 [1]; [7],4.55
O=C(N[C@@H](Cc1ccc(I)cc1)C(=O)NC[C@@H]1CC(Br)=NO1)OCc1cnc2ccccc2c1 [Compound 11],pIC50,AgTG3 [1]; [7],< 4.00
same,Activity against AgTG3 in dose–response assay,AgTG3 [1],inactive
O=C(N[C@@H](Cc1ccc(O)cc1)C(=O)NC[C@H]1CC(Br)=NO1)OCc1ccccc1 [Compound D26],pIC50,AgTG3 [1]; [7],< 4.00
O=C(N[C@@H](Cc1ccc(O)cc1)C(=O)NC[C@@H]1CC(Br)=NO1)OCc1ccccc1 [Compound D27],pIC50,AgTG3 [1]; [7],< 4.00
O=C(N[C@@H](Cc1ccc(O)cc1)C(=O)NC[C@H]1CC(Br)=NO1)OCc1cnc2ccccc2c1 [Compound D62],pIC50,AgTG3 [1]; [7],< 4.00
O=C(N[C@@H](Cc1ccc(O)cc1)C(=O)NC[C@H]1CC(Br)=NO1)OCC1c2ccccc2-c2ccccc21 [Compound D71],pIC50,AgTG3 [1]; [7],< 4.00
O=C(N[C@@H](Cc1ccc(O)cc1)C(=O)NC[C@@H]1CC(Br)=NO1)OCC1c2ccccc2-c2ccccc21 [Compound D73],pIC50,AgTG3 [1]; [7],< 4.00
CN(C(=O)OCc1cnc2ccccc2c1)[C@@H](Cc1ccccc1)C(=O)NC[C@@H]1CC(Br)=NO1 [Compound D83],pIC50,AgTG3 [1]; [7],< 4.00
O=C(N[C@@H](Cc1ccc(-c2ccccc2)cc1)C(=O)NC[C@@H]1CC(Br)=NO1)OCc1cnc2ccccc2c1 [Compound D84],pIC50,AgTG3 [1]; [7],< 4.00
O=C(N[C@@H](CCc1ccccc1)C(=O)NC[C@@H]1CC(Br)=NO1)OCc1cnc2ccccc2c1 [Compound D85],pIC50,AgTG3 [1]; [7],< 4.00
O=C(N[C@@H](Cc1cccc2ccccc12)C(=O)NC[C@@H]1CC(Br)=NO1)OCc1cnc2ccccc2c1 [Compound D86],pIC50,AgTG3 [1]; [7],< 4.00
C[C@@](Cc1ccccc1)(NC(=O)OCc1cnc2ccccc2c1)C(=O)NC[C@@H]1CC(Br)=NO1 [Compound D91],pIC50,AgTG3 [1]; [7],< 4.00
C[C@@H](c1ccccc1)[C@H](NC(=O)OCc1cnc2ccccc2c1)C(=O)NC[C@@H]1CC(Br)=NO1 [Compound D94],pIC50,AgTG3 [1]; [7],4.08
C#Cc1ccc(COC(=O)N[C@@H](Cc2ccc(O)cc2)C(=O)NC[C@@H]2CC(Br)=NO2)cc1 [Compound D142],pIC50,AgTG3 [1]; [7],< 4.00
[N-]=[N+]=Nc1ccc(COC(=O)N[C@@H](Cc2ccc(O)cc2)C(=O)NC[C@@H]2CC(Br)=NO2)cc1 [Compound D143],pIC50,AgTG3 [1]; [7],< 4.00
"O=C(O)CN(CCN(CC(=O)O)CC(=O)O)CC(=O)O [EDTA, reference compound]",Inhibition of plugin-C cross-linking by AgTG3 (controls),AgTG3 [2],Cross-linking is inhibited
"NC(=O)CI [IA, iodoacetamide, reference compound]",Inhibition of plugin-C cross-linking by AgTG3 (controls),AgTG3 [2],Cross-linking is inhibited
same,Inhibition of caspase-1,human caspase-1,potent inhibitor of the enzyme
same,Inhibition of TEV protease,[5],potent inhibitor of the enzyme
"NNC(=O)CSc1nc2scc(-c3ccccc3)c2c(=O)n1-c1ccccc1 [LDN-27219, reference compound]",Inhibition of AgTG3 in primary screen,AgTG3 [1],neither the eight acylidene oxoindoles tested nor the thienopyrimidinone LDN-27219 inhibited AgTG3
same,Inhibition of AgTG3 in primary screen,AgTG3 [1]; listed as LD-217912,neither acylidene oxoindoles nor the thienopyrimidinone LD-217912 showed any inhibition
same,pIC50,hTG2,> 5.00
